{
  "source": "patent US20230272479A1",
  "about": "“BIOMARKER BASED PATIENT SELECTION FOR PROTEASOME INHIBITOR TREATMENT” (University of Utah Research Foundation, priority 2020, published 2023)",
  "key": {"Jurkat cells": {"tested_on": "Jurkat cells", "assay": "Viability of WT or ATAD1Δ Jurkat cells after treatment with MCL1 inhibitor", "assay_type": "cell-based, human", "conditions": "ATAD1Δ vs WT Jurkat cells, 24 hr treatment", "description": "FIGS. 2A-2G show genome-wide CRISPR screens identify genetic interactions with ATAD1 (A) Schematic of CRISPR screening strategy (B) Generation of clonal ATAD1 knockout in a PTEN-null genetic background of Jurkat cells and proliferation rate of ATAD1Δ and WT Jurkat cells in RPMI1640 media (C) Volcano plot of CRISPR screening results; CRISPR scores were defined as the mean Log2 fold-change of sgRNAs targeting a given gene. Differential CRISPR scores (dCS) were calculated by subtracting the WT CS from the ATAD1Δ CS. dCS combined is the sum of dCS values for each clone. P-values were calculated for each gene using Kolmogorov-Smirnov with Benjamini Hochberg correction and Fisher's Method for P value meta-analysis. Dashed lines demarcate dCS<−2 and Padj<0.05 (D) DepMap data showing correlation of MARCH5 dependency and MCL1 dependency (E) Western blot of whole cell lysates from WT or ATAD1Δ Jurkat cells showing steady-state levels of BIM, MCL1, and FIS1, a non-BCL2 family control (F) Quantification of BIMEL levels in ATAD1Δ cells; n=6 independent experiments (G) Viability of WT or ATAD1Δ Jurkat cells after 24 hr treatment with the MCL1 inhibitor, AMG176.\nThus, like MARCH5, ATAD1 modulates members the BCL2 family and affects apoptotic priming as measured by sensitivity to a BH3-mimetic. […]"}, "H4 glioma cells": {"tested_on": "H4 glioma cells", "assay": "BH3 profiling (cytochrome C release / MOMP) in permeabilized H4 glioma cells", "assay_type": "cell-based", "conditions": "compared across ATAD1 status", "description": "Cells were treated with doxycycline (250 ng/mL) for 24 hr (F) Co-immunoprecipitation of ATAD1-FLAG/HA and GFP-BIMEL in cells stably expressing ATAD1-FLAG or EV and transiently transfected overnight with GFP-BIMEL in the presence of zVAD-fmk (G) RPMI7951 cells were treated with MG132 (10 μM) for 4 hr, whole-cell lysates were prepped and analyzed by Western blot. (H) Schematic of reconstituted proteoliposome extraction assay (I) Extraction assay using His-ATAD1 and 3×FLAG-BIML (lanes 1-4, 9-20) or the negative control TA protein, 3×FLAG-Fis1 (lanes 5-8); GST-tagged SGTA and calmodulin (CaM) are included as chaperones to catch extracted TA protein. “I”=Input, “FT”=flow-through, “W”=final wash, “E”=elution. Eluted fractions represent TA proteins extracted by ATAD1 and bound by GST-tagged chaperones; compare elution “E” to input “I”. † denotes P<0.0001\nTo gain insight into how loss of ATAD1 affects apoptotic priming, BH3 profiling was conducted (33). Here, permeabilized cells are treated with BH3 peptides derived from different pro-apoptotic BH3-only proteins, and mitochondrial outer membrane permeability (MOMP) is directly measured by detecting cytochrome C release from mitochondria (FIG. 3A). […] This priming reflects a change in how the cell regulates the endogenous BIM protein. […]"}, "[1]": {"tested_on": "Del10q23 cells (RPMI7951)", "assay": "Apoptosis by Western blot of whole cell lysate after bortezomib", "assay_type": "cell-based", "conditions": "RPMI7951, 10 nM, 8 hr", "description": "(§1) FIGS. 4A-4K show ATAD1 protects cells from apoptosis induced by proteasome dysfunction. (A) Viability of SW1088 cells transduced with EV or ATAD1-FLAG and treated for 24 hr with indicated drugs (B) Time-course of viability in response to bortezomib treatment in SW1088 cells (C) Western blot of RPMI7951 whole cell lysate treated with 10 nM bortezomib for 8 hr (D) Quantification of C (E) Viability of ATAD1-null vs. re-expressing RPMI7951 cells in response to 16 hr treatment with BTZ and the pan-caspase inhibitor, zVAD-FMK (20 μM) or DMSO (zVAD vehicle) (F) Same as E, but viability was measured by crystal violet staining and quantified in (G). (H) Schematic describing the role of ATAD1 in proteasome inhibitor toxicity (I) Tumor size of subcutaneous xenografts of SW1088 cells in NOD/SCID mice over time (J) Incidence of palpable tumors, or tumor-free survival, over time (K) Proliferation of cultured SW1088 cells as measured with crystal violet staining, n=2 independent experiments. † represents P<0.0001\nWhole cell lysates were prepared by scraping cells directly into RIPA buffer supplemented with protease and phosphatase inhibitors (Sigma Aldrich P8340, Roche Molecular 04906845001), incubated on ice for 30 minutes with vortexing every 10 min, and then spun at 16,000 g for 10 minutes at 4° C. to remove insoluble material. Supernatant was saved as lysate. […]"}, "[2]": {"tested_on": "Del10q23 cells (SW1088 and H4 glioma and RPMI7951 melanoma)", "assay": "Viability of Del10q23 cells treated with proteasome inhibitors (Cell Titer Glo, crystal violet)", "assay_type": "cell-based", "description": "as §1\n(§2) FIGS. 8A-8I show restoring ATAD1 expression in Del(10q23) cells increases resistance to proteasome inhibitors. (A) RPMI7951 cells were treated for 16 hr with bortezomib or carfilzomib and viability was measured by Cell Titer Glo. (B) Time-course of RPMI7951 cells treated with bortezomib (3.125 nM) n=3 biological replicates (C) SW1088 cells were cultured in 5 nM bortezomib for 48 hr and RPMI7951 cells were cultured for 24 hr and viability was assessed by crystal violet staining (D) H4 cells were treated with bortezomib for 24 hr and assessed by Cell Titer Glo (E) ATAD1 addback rescues mitochondrial morphology phenotype in response to bortezomib in SW1088 cells. Cells were treated with BTZ (10 nM) for 12 hr and stained with MitoTracker Red, then imaged on a widefield fluorescence microscope (F) Expression of ATAD1 in DepMap cell lines, highlighting PC3 cells (ATAD1 hemizygous), and two Del10q23 cell lines (G) Generation of ATAD1-deficient, polyclonal PC3 cells using stable expression of sgATAD1 (in LCv2G), with untargeted Cas9 only as a control (LCv2G) (H) Deletion of ATAD1 increases sensitivity to bortezomib in PC3 cells. […]\n(§3) Viability was determined by Cell Titer Glo (Promega) according to the manufacturer's recommendation, with some modifications. […] Luminescence was measured using a Biotek Synergy Neo2 microplate reader. Luminescence values were normalized on each plate to untreated cells on the same plate, and expressed as percent.\nCells cultured in 12 or 6 well plates were washed twice with PBS then fixed with 4% paraformaldehyde (Sigma Aldrich) for 30 minutes at room temperature. […] Absorbance was measured at 590 nm using a Biotek Synergy Neo2 microplate reader, and values were normalized to those from untreated cells of the same genotype on each plate."}, "PC3 cells": {"tested_on": "PC3 cells", "assay": "Viability of PC3 cells with ATAD1 deletion or overexpression treated with bortezomib", "assay_type": "cell-based", "description": "as §2\nViability was determined by Cell Titer Glo (Promega) according to the manufacturer's recommendation, with some modifications. […] Luminescence was measured using a Biotek Synergy Neo2 microplate reader. […]"}, "RPMI7951 cells": {"tested_on": "RPMI7951 cells", "assay": "Viability of ATAD1-null vs. re-expressing RPMI7951 cells with BTZ and pan-caspase inhibitor", "assay_type": "cell-based", "conditions": "16 hr BTZ, zVAD-FMK 20 μM", "description": "as §1\nas §3, with “percent. […]” for “percent.”"}, "[3]": {"conditions": "Del10q23 cells (ATAD1-null, EV)"}, "[4]": {"conditions": "Del10q23 cells with expression of ATAD1"}},
  "note": "Residues, ends and D or L forms follow the SMILES beside them. *: point of attachment. Cbz = O=C(OCc1ccccc1)*; CH2F = FC*",
  "data": [
    {"molecule": "CO[C@H]1/C=C/C[C@H](C)[C@@H](C)S(=O)(=O)NC(=O)c2ccc3c(c2)N(C[C@@H]2CC[C@H]21)C[C@@]1(CCCc2cc(Cl)ccc21)CO3", "note": "[AMG176]", "values": [
      {"measurement": "apoptotic priming (sensitivity to BH3-mimetic, viability)", "setting": "Jurkat cells", "result": "primed cells for apoptosis induced by AMG176"}
    ]},
    {"molecule": "CC(=O)NC(C)(C)C(=O)N1CCC[C@H]1C(=O)NC(C)(C)C(=O)N[C@@H](C)C(=O)NC(C)(C)C(=O)N[C@@H](C)C(=O)N[C@@H](CCC(N)=O)C(=O)NC(C)(C)C(=O)N[C@H](C(=O)NC(C)(C)C(=O)NCC(=O)N[C@@H](CC(C)C)C(=O)NC(C)(C)C(=O)N1CCC[C@H]1C(=O)N[C@H](C(=O)NC(C)(C)C(=O)NC(C)(C)C(=O)N[C@@H](CCC(=O)O)C(=O)N[C@@H](CCC(N)=O)C(=O)N[C@H](CO)Cc1ccccc1)C(C)C)C(C)C", "note": "[Alamethicin] (HELM PEPTIDE1{[ac].[Aib].P.[Aib].A.[Aib].A.Q.[Aib].V.[Aib].G.L.[Aib].P.V.[Aib].[Aib].E.Q.[OC[C@H](Cc1ccccc1)N[*:1]]}$$$$V2.0)", "values": [
      {"measurement": "cytochrome C release", "setting": "H4 glioma cells", "result": "induced cytochrome C release equally regardless of ATAD1 status"}
    ]},
    {"molecule": "CC(C)C[C@H](NC(=O)[C@H](Cc1ccccc1)NC(=O)c1cnccn1)B(O)O", "note": "[bortezomib]", "values": [
      {"measurement": "apoptosis", "setting": "[1]; ATAD1 re-expressing cells", "result": "only minimally"},
      {"measurement": "apoptosis", "setting": "[1]; Del10q23-EV cells", "result": "robust apoptosis"},
      {"measurement": "loss of viability", "setting": "[2]; [3]", "result": "potently and rapidly induced a loss of viability"},
      {"measurement": "loss of viability", "setting": "[2]; [4]", "result": "mitigated by expression of ATAD1"},
      {"measurement": "sensitivity (viability)", "setting": "PC3 cells; deletion of the remaining allele of ATAD1", "result": "sensitized to bortezomib"},
      {"measurement": "resistance (viability)", "setting": "PC3 cells; overexpression of ATAD1 (not ATAD1E193Q)", "result": "increased resistance to bortezomib"}
    ]},
    {"molecule": "CC(C)C[C@H](NC(=O)[C@H](CCc1ccccc1)NC(=O)CN1CCOCC1)C(=O)N[C@@H](Cc1ccccc1)C(=O)N[C@@H](CC(C)C)C(=O)[C@@]1(C)CO1", "note": "[carfilzomib]", "values": [
      {"measurement": "loss of viability", "setting": "[2]; [3]", "result": "potently and rapidly induced a loss of viability"},
      {"measurement": "loss of viability", "setting": "[2]; [4]", "result": "mitigated by expression of ATAD1"}
    ]},
    {"molecule": "COC(=O)C[C@H](NC(=O)[C@H](C)NC(=O)[C@@H](NC(=O)OCc1ccccc1)C(C)C)C(=O)CF", "note": "[zVAD] (Cbz-Val-Ala-Asp(OMe)-CH2F)", "values": [
      {"measurement": "effect on viability under bortezomib", "setting": "RPMI7951 cells", "result": "minimal additive effect"}
    ]}
  ]
}
